What was measured:
Assay in all cases: radiometric filter-binding kinase assay, Kinase HotSpot
Conditions in all cases: compound 0.5 µM; ATP 10 µM
PRKD3 (human) = PRKD3 (human) (UniProt O94806)
AKT3 (human) = AKT3 (human) (UniProt Q9Y243)
CAMK1D (human) = CAMK1D (human) (UniProt Q8IU85)
CSNK1G1 (human) = CSNK1G1 (human) (UniProt Q9HCP0)
PDGFRA (human) = PDGFRA (human) (UniProt P16234)
CHUK (human) = CHUK (human) (UniProt O15111)
LIMK1 (human) = LIMK1 (human) (UniProt P53667)
EGFR (human) = EGFR (human) (UniProt P00533)
Chain of EGFR (human) (P00533 whole entry, looked up): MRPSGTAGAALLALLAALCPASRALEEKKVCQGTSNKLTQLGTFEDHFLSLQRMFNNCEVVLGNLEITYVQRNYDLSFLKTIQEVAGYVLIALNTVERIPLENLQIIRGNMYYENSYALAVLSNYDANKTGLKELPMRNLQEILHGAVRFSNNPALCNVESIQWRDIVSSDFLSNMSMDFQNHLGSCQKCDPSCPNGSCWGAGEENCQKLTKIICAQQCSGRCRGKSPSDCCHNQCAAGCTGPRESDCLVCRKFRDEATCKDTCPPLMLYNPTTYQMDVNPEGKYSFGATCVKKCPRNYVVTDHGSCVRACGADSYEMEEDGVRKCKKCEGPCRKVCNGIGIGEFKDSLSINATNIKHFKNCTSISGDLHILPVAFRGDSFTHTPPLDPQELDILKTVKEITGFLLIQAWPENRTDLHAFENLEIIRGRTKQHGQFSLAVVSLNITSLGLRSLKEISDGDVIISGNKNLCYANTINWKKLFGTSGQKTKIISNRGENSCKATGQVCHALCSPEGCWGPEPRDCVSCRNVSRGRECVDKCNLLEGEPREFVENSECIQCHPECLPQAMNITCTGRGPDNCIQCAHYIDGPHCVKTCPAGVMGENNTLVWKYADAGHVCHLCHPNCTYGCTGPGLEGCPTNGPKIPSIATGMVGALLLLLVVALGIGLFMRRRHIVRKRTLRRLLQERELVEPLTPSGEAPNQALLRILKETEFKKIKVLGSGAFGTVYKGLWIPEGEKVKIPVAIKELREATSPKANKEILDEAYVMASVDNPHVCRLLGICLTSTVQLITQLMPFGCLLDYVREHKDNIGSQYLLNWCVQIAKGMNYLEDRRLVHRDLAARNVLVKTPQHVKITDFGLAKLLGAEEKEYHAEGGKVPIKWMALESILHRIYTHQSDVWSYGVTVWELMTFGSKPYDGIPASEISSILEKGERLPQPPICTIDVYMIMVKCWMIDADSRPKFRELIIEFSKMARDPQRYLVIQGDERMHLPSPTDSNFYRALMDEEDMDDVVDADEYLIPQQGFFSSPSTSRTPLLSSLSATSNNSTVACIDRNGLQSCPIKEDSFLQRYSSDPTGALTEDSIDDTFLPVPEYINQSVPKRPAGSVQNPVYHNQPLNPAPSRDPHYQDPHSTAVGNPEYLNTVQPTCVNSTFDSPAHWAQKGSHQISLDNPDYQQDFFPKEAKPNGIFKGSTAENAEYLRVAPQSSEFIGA

CDK7 CCNH MNAT1 (human) = CDK7 CCNH MNAT1 (human) (UniProt P50613+P51948+P51946)
MELK (human) = MELK (human) (UniProt Q14680)
PRKD1 (human) = PRKD1 (human) (UniProt Q15139)
DYRK1A (human) = DYRK1A (human) (UniProt Q13627)
MAP4K4 (human) = MAP4K4 (human) (UniProt O95819)
NEK2 (human) = NEK2 (human) (UniProt P51955)
CAMKK1 (human) = CAMKK1 (human) (UniProt Q8N5S9)
PRKCA (human) = PRKCA (human) (UniProt P17252)
GRK5 (human) = GRK5 (human) (UniProt P34947)
Chain of GRK5 (human) (P34947 whole entry, looked up): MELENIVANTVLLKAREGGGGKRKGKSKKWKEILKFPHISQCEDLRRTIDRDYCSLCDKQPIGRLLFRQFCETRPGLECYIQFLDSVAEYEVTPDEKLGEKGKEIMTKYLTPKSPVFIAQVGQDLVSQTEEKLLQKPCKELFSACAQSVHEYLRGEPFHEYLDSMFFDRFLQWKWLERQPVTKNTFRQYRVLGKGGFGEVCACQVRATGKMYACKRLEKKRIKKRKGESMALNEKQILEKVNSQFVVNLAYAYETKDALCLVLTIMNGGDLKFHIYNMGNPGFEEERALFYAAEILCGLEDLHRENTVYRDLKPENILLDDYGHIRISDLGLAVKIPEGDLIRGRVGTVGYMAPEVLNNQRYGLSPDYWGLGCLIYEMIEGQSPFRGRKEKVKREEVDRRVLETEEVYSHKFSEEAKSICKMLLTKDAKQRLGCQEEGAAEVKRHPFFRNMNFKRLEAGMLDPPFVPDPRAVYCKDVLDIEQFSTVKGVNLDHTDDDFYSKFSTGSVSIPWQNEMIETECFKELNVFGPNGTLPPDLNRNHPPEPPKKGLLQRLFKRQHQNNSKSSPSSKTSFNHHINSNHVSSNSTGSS

PRKCZ (human) = PRKCZ (human) (UniProt Q05513)
SRMS (human) = SRMS (human) (UniProt Q9H3Y6)
MINK1 (human) = MINK1 (human) (UniProt Q8N4C8)
CAMK2B (human) = CAMK2B (human) (UniProt Q13554)
ALK (human) = ALK (human) (UniProt Q9UM73)
ACVR1 (human) = ACVR1 (human) (UniProt Q04771)
STK25 (human) = STK25 (human) (UniProt O00506)
Chain of STK25 (human) (O00506 whole entry, looked up): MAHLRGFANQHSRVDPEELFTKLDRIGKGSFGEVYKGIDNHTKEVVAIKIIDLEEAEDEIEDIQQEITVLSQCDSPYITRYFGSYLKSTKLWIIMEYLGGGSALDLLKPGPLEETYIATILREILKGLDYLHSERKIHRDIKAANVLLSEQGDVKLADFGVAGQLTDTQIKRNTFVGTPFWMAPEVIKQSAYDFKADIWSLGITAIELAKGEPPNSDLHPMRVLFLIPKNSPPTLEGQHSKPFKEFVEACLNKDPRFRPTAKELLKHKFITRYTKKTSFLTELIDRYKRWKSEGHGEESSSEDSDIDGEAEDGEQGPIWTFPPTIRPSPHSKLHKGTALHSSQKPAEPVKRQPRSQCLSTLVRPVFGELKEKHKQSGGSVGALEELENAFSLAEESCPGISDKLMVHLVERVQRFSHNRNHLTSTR

CDK2 CCNE1 (human) = CDK2 CCNE1 (human) (UniProt P24941+P24864)
Chain of CDK2 CCNE1 (human) (P24864 whole entry, looked up, other chains not shown): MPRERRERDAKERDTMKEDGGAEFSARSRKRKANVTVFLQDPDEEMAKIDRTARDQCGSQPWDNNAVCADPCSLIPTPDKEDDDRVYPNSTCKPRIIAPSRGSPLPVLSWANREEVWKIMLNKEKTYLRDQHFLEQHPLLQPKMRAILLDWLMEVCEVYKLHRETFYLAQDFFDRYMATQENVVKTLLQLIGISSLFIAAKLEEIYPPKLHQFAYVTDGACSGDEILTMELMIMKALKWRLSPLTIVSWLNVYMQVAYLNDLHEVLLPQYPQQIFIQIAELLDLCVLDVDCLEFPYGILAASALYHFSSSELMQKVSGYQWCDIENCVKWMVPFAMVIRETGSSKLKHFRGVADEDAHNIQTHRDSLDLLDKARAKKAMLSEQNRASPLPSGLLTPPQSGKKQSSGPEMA

LCK (human) = LCK (human) (UniProt P06239)
WNK3 (human) = WNK3 (human) (UniProt Q9BYP7)
PDGFRB (human) = PDGFRB (human) (UniProt P09619)
CDK3 CCNE1 (human) = CDK3 CCNE1 (human) (UniProt Q00526+P24864)
Chain of CDK3 CCNE1 (human) (P24864 whole entry, looked up): as the sequence (P24864 whole entry, looked up, other chains not shown) above
Chain of CDK3 CCNE1 (human) (Q00526 whole entry, looked up): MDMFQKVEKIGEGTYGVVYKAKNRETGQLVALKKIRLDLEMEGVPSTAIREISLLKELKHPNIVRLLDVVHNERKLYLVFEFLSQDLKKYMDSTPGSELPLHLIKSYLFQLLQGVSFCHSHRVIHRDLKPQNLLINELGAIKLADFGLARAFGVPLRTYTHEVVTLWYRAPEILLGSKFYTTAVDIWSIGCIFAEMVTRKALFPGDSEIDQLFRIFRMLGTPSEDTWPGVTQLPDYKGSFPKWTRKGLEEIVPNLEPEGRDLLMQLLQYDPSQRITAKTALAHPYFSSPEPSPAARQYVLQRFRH

NEK4 (human) = NEK4 (human) (UniProt P51957)
CDK1 CCNB1 (human) = CDK1 CCNB1 (human) (UniProt P06493+P14635)
HIPK3 (human) = HIPK3 (human) (UniProt Q9H422)
GRK6 (human) = GRK6 (human) (UniProt P43250)
CAMK1 (human) = CAMK1 (human) (UniProt Q14012)
PRKCI (human) = PRKCI (human) (UniProt P41743)
NTRK1 (human) = NTRK1 (human) (UniProt P04629)
MKNK2 (human) = MKNK2 (human) (UniProt Q9HBH9)
TGFBR1 (human) = TGFBR1 (human) (UniProt P36897)
PRKCG (human) = PRKCG (human) (UniProt P05129)
SRPK1 (human) = SRPK1 (human) (UniProt Q96SB4)
ADRBK1 (human) = ADRBK1 (human) (UniProt P25098)
EPHA7 (human) = EPHA7 (human) (UniProt Q15375)
Chain of EPHA7 (human) (Q15375 whole entry, looked up): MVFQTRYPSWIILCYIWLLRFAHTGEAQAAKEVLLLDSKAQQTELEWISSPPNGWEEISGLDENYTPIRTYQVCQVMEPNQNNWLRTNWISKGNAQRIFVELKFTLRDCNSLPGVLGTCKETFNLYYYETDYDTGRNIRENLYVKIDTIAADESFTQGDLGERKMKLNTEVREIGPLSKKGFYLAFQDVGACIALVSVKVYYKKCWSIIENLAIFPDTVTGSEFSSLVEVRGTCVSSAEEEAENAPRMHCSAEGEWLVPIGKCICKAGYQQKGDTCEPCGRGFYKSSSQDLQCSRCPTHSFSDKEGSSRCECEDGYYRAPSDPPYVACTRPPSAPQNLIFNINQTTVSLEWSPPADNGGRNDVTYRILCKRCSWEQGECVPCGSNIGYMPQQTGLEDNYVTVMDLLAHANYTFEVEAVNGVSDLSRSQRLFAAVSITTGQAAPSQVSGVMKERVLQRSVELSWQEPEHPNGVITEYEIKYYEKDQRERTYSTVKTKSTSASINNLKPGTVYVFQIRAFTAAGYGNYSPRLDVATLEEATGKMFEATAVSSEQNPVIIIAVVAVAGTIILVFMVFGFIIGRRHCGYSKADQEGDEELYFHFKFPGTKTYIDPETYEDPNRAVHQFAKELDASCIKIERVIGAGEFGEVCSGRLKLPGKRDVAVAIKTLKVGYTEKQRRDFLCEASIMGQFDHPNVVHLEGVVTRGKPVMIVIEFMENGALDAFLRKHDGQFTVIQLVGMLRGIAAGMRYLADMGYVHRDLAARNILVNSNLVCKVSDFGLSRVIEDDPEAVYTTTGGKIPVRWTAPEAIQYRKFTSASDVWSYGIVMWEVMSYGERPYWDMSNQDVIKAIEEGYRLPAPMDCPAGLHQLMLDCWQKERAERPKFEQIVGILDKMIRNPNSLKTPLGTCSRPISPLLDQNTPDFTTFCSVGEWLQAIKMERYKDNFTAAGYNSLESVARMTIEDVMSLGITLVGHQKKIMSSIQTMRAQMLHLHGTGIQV

Chain of CAMK1D (human) (Q8IU85 whole entry, looked up): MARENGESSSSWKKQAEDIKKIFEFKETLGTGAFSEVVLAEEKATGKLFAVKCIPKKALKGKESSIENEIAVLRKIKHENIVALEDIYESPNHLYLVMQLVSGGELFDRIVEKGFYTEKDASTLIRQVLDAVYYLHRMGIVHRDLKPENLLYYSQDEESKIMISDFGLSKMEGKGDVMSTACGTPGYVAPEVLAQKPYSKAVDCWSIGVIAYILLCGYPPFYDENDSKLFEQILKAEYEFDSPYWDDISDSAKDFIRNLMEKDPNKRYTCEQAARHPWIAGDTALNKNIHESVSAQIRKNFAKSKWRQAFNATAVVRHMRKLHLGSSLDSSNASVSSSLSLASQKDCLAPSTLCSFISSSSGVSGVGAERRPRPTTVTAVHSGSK

In the case of `COc1ccc2c(c[n+](C)c3c4cc5c(cc4ccc23)OCO5)c1OC`, the residual activity (PRKD3 (human)) is reported as 99.3%, the residual activity (AKT3 (human)) is reported as 103% and the residual activity (CAMK1D (human)) is reported as 105%. For the same compound, the residual activity (CSNK1G1 (human)) was 106%, the residual activity (PDGFRA (human)) was 101% and the residual activity (CHUK (human)) was 97.5%. It also gave a residual activity (LIMK1 (human)) of 109%, a residual activity (EGFR (human)) of 99.6% and a residual activity (CDK7 CCNH MNAT1 (human)) of 91.9%. It also gave a residual activity (MELK (human)) of 89.6%, a residual activity (PRKD1 (human)) of 100% and a residual activity (DYRK1A (human)) of 103%. For the same compound, the residual activity (MAP4K4 (human)) was 84.9%, the residual activity (NEK2 (human)) was 98.6% and the residual activity (CAMKK1 (human)) was 101%. For the same compound, the residual activity (PRKCA (human)) was 78.9%, the residual activity (GRK5 (human)) was 110% and the residual activity (PRKCZ (human)) was 97.7%. The residual activity (SRMS (human)) was 86%, the residual activity (MINK1 (human)) was 97.5% and the residual activity (CAMK2B (human)) was 98.9%. For the same compound, the residual activity (ALK (human)) was 105%, the residual activity (ACVR1 (human)) was 93.2% and the residual activity (STK25 (human)) was 98.8%. It also gave a residual activity (CDK2 CCNE1 (human)) of 88.9%, a residual activity (LCK (human)) of 89% and a residual activity (WNK3 (human)) of 101%. For the same compound, the residual activity (PDGFRB (human)) was 93.5%, the residual activity (CDK3 CCNE1 (human)) was 91.7% and the residual activity (NEK4 (human)) was 96.6%. It also gave a residual activity (CDK1 CCNB1 (human)) of 84.4%, a residual activity (HIPK3 (human)) of 96.6% and a residual activity (GRK6 (human)) of 104%. The residual activity (CAMK1 (human)) was 81.4%, the residual activity (PRKCI (human)) was 98.3% and the residual activity (NTRK1 (human)) was 89.8%. The residual activity (MKNK2 (human)) was 107%, the residual activity (TGFBR1 (human)) was 98.5% and the residual activity (PRKCG (human)) was 87.2%. The residual activity (SRPK1 (human)) was 95.3%, the residual activity (ADRBK1 (human)) was 96.6% and the residual activity (EPHA7 (human)) was 95.4%.
`Cc1ccc(S(=O)(=O)/C=C/C#N)cc1` was tested, and the residual activity (PRKD3 (human)) was 96.1%, the residual activity (AKT3 (human)) was 93.7% and the residual activity (CAMK1D (human)) was 108%. For the same compound, the residual activity (CSNK1G1 (human)) was 101%, the residual activity (PDGFRA (human)) was 94.2% and the residual activity (CHUK (human)) was 87.3%. The residual activity (LIMK1 (human)) was 97.1%, the residual activity (EGFR (human)) was 97.5% and the residual activity (CDK7 CCNH MNAT1 (human)) was 98.2%. The residual activity (MELK (human)) was 92%, the residual activity (PRKD1 (human)) was 93.8% and the residual activity (DYRK1A (human)) was 107%. For the same compound, the residual activity (MAP4K4 (human)) was 106%, the residual activity (NEK2 (human)) was 101% and the residual activity (CAMKK1 (human)) was 114%. For the same compound, the residual activity (PRKCA (human)) was 70.6%, the residual activity (GRK5 (human)) was 105% and the residual activity (PRKCZ (human)) was 101%. The residual activity (SRMS (human)) was 98.8%, the residual activity (MINK1 (human)) was 111% and the residual activity (CAMK2B (human)) was 106%. The residual activity (ALK (human)) was 103%, the residual activity (ACVR1 (human)) was 101% and the residual activity (STK25 (human)) was 89.6%. The residual activity (CDK2 CCNE1 (human)) was 89.2%, the residual activity (LCK (human)) was 93.7% and the residual activity (WNK3 (human)) was 110%. The residual activity (PDGFRB (human)) was 103%, the residual activity (CDK3 CCNE1 (human)) was 99.7% and the residual activity (NEK4 (human)) was 94.3%. It also gave a residual activity (CDK1 CCNB1 (human)) of 92.3%, a residual activity (HIPK3 (human)) of 100% and a residual activity (GRK6 (human)) of 112%. For the same compound, the residual activity (CAMK1 (human)) was 98.8%, the residual activity (PRKCI (human)) was 90.3% and the residual activity (NTRK1 (human)) was 90.1%. It also gave a residual activity (MKNK2 (human)) of 119%, a residual activity (TGFBR1 (human)) of 103% and a residual activity (PRKCG (human)) of 92.9%. For the same compound, the residual activity (SRPK1 (human)) was 99.7%, the residual activity (ADRBK1 (human)) was 102% and the residual activity (EPHA7 (human)) was 99.8%.
`Nc1cccc(-c2cc3c(Oc4cccc(O)c4)ncnc3[nH]2)c1` gave a residual activity (PRKD3 (human)) of 91%, a residual activity (AKT3 (human)) of 96.2% and a residual activity (CAMK1D (human)) of 97.7%. It also gave a residual activity (CSNK1G1 (human)) of 102%, a residual activity (PDGFRA (human)) of 73.6% and a residual activity (CHUK (human)) of 102%. It also gave a residual activity (LIMK1 (human)) of 22.1%, a residual activity (EGFR (human)) of 7.89% and a residual activity (CDK7 CCNH MNAT1 (human)) of 94.2%. The residual activity (MELK (human)) was 93.4%, the residual activity (PRKD1 (human)) was 94.4% and the residual activity (DYRK1A (human)) was 103%. For the same compound, the residual activity (MAP4K4 (human)) was 12.5%, the residual activity (NEK2 (human)) was 98% and the residual activity (CAMKK1 (human)) was 113%. It also gave a residual activity (PRKCA (human)) of 95.6%, a residual activity (GRK5 (human)) of 128% and a residual activity (PRKCZ (human)) of 94%. The residual activity (SRMS (human)) was 94.4%, the residual activity (MINK1 (human)) was 34.7% and the residual activity (CAMK2B (human)) was 101%. It also gave a residual activity (ALK (human)) of 80.9%, a residual activity (ACVR1 (human)) of 183% and a residual activity (STK25 (human)) of 91.6%. The residual activity (CDK2 CCNE1 (human)) was 90%, the residual activity (LCK (human)) was 24.2% and the residual activity (WNK3 (human)) was 88.5%. For the same compound, the residual activity (PDGFRB (human)) was 39.9%, the residual activity (CDK3 CCNE1 (human)) was 82.3% and the residual activity (NEK4 (human)) was 91.4%. For the same compound, the residual activity (CDK1 CCNB1 (human)) was 98.9%, the residual activity (HIPK3 (human)) was 94% and the residual activity (GRK6 (human)) was 98%. For the same compound, the residual activity (CAMK1 (human)) was 112%, the residual activity (PRKCI (human)) was 84.6% and the residual activity (NTRK1 (human)) was 90.5%. For the same compound, the residual activity (MKNK2 (human)) was 67.5%, the residual activity (TGFBR1 (human)) was 101% and the residual activity (PRKCG (human)) was 88.1%. The residual activity (SRPK1 (human)) was 107%, the residual activity (ADRBK1 (human)) was 108% and the residual activity (EPHA7 (human)) was 77.2%.
